Assay results as given in patent US10835549B2, “Polyplexes” (Vanderbilt University, priority 2013, dated 2020).
No end group written: not given here.

Legend:
human saphenous vein = assay: HSV enhanced relaxation with AZX 100 (muscle bath, phenylephrine / sodium nitroprusside); settings: 30 minutes incubation, n=3
rat aortic smooth muscle = assay: Rat aortic smooth muscle contraction (muscle bath, phenylephrine); settings: 30 minutes incubation, phenylephrine challenge, n=6
Description: FIGS. 71-73 show the results of an example wherein rat aortic smooth muscle was suspended on a muscle bath apparatus. Tissue was equilibrated in bicarbonate buffer and challenged with KCl (110 mM) to confirm viability of the tissue. After returning the tissue to basal tension, the smooth muscle was challenged with 5*10^−8 M phenylephrine (5*10^−8 M) and then washed with bicarbonate buffer. The tissue was then returned to basal tension through subsequent washes of bicarbonate buffer and then either treated with control, AZX 100 peptide, or AZX polyplexes. After 30 minutes of incubation, the tissue was challenged with phenylephrine, and the contractile force was compared with the initial contraction to determine the percent inhibition that occurs. […] (n=6)

[1] = tested on: human bronchiolar airway smooth muscle (HASM); assay: Relaxation of human bronchiolar airway smooth muscle (HASM); parameters: unit not given here
[2] = Flow cytometric quantification of intracellular uptake and retention; settings: human
Description: (§1) HCAVSMCs were grown to 80-90% confluence, harvested, and seeded at 20,000 cells per well in a 24-well plate and were allowed to adhere overnight in low serum media. […] Following treatment, cells were washed with PBS −/−, washed with CellScrub buffer (Genlantis) for 10 minutes at room temperature to remove extracellular polyplexes and/or peptide, washed 2× in PBS −/−, and the media was refreshed with complete growth media. Cells were then incubated for an additional 0, 12, 24, 72, or 120 hours. Cells were then washed with PBS −/−, trypsinized, and resuspended in 0.1% Trypan blue in PBS (−/−) for analysis on a FACSCalibur flow cytometer (Becton Dickinson) with BD CellQuest™ Pro software (V 5.2). Data was exported and analyzed with FlowJo software (V 7.6.4). All samples are run in triplicate.
(§2) Studies were done using a fluorescently labeled peptide and flow cytometry. […] Exponential lines were fit to each data set in order to determine a fluorescence half-life for each treatment group. Mean Fluorescence Intensity values were reported as increase in MFI compared to untreated controls, n=3.

HCAVSMCs = assay: as above; settings: HCAVSMCs, up to 5 days after treatment
Description: as §1, §2

Substance	enhancement of relaxation (human saphenous vein)	inhibition of contraction (rat aortic smooth muscle)	Relaxation of HASM ([1]; HASM 11, .5 mM)	Relaxation of HASM ([1]; HASM 17, 1 mM)	Relaxation of HASM ([1]; HASM 17, .5 mM)	Relaxation of HASM ([1]; HASM 18, 1 mM)	Relaxation of HASM ([1]; HASM 20, 1 mM)	Relaxation of HASM ([1]; HASM 20, .5 mM)	Relaxation of HASM ([1]; HASM 22, 1 mM)	Relaxation of HASM ([1]; HASM 22, .5 mM)	half-life at 10 μM [2] [h]	intracellular retention of the peptide (HCAVSMCs)
AZX 100 peptide: AZX100 peptide (SEQ ID NO: 2), which can be utilized for airway relaxation (YARAAARQARAWLRRASAPLPGLK; AZX-100 Sequence)	dose dependent enhancement of relaxation	dose dependent inhibition of contraction	24	25	10	80	76	36	84	40	–	–
YARAAARQARAKALARQLGVAA [MK2i]	–	–	–	–	–	–	–	–	–	–	98.4	more rapidly lost intracellular peptide
